Several values for one entry are separate records, joined by “and”; a condition that tells them apart may be missing. Equal entries are not always repeated. Inconclusive results and toxic doses are left out. Cut-off read from the data, not from the text of the source: active = T/C of 150% or more; inactive = T/C below 125%.
System: L1210 leukemia ip in BDF1 mice, survival T/C
Experiment: NCI In Vivo Anticancer Drug Screen. Data for tumor model L1210 Leukemia (intraperitoneal) in B6D2F1 (BDF1) mice
Details: endpoint: mean survival time, higher = longer survival
Outline: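 Read-out is survival time, reported as the treated-group measurement over the vehicle-control measurement.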

[1] = dose: 100.0 mg/kg/injection, schedule: Q04DX003 (ip), vehicle: saline with Tween-80
[2] = dose: 200.0 mg/kg/injection, schedule: Q04DX003 (ip), vehicle: saline with Tween-80
[3] = dose: 400.0 mg/kg/injection, schedule: Q04DX003 (ip), vehicle: saline with Tween-80
[4] = dose: 25.0 mg/kg/injection, schedule: Q01DX009 (ip), vehicle: Klucel (hydroxypropylcellulose) (HPC)
[5] = dose: 50.0 mg/kg/injection, schedule: Q01DX009 (ip), vehicle: Klucel (hydroxypropylcellulose) (HPC)
[6] = dose: 100.0 mg/kg/injection, schedule: Q01DX009 (ip), vehicle: Klucel (hydroxypropylcellulose) (HPC)
[7] = dose: 100.0 mg/kg/injection, schedule: Q04DX003 (ip), vehicle: Klucel (hydroxypropylcellulose) (HPC)
[8] = dose: 100.0 mg/kg/injection, schedule: Q01DX009 (ip), vehicle: saline with Tween-80
[9] = dose: 200.0 mg/kg/injection, schedule: Q01DX009 (ip), vehicle: saline with Tween-80
[10] = dose: 400.0 mg/kg/injection, schedule: Q01DX009 (ip), vehicle: Klucel (hydroxypropylcellulose) (HPC)
[11] = dose: 100.0 mg/kg/injection, schedule: Q01DX001 (ip), vehicle: Klucel (hydroxypropylcellulose) (HPC)
[12] = dose: 200.0 mg/kg/injection, schedule: Q01DX001 (ip), vehicle: Klucel (hydroxypropylcellulose) (HPC)
[13] = dose: 400.0 mg/kg/injection, schedule: Q01DX001 (ip), vehicle: Klucel (hydroxypropylcellulose) (HPC)
[14] = dose: 200.0 mg/kg/injection, schedule: Q01DX009 (ip), vehicle: Klucel (hydroxypropylcellulose) (HPC)

Measured: T/C

CN(C)S(=O)(=O)c1ccc(Nc2ccc(O)c3c2C(=O)c2c([N+](=O)[O-])ccc(O)c2C3=O)cc1
inactive: dose: 75.0 mg/kg/injection, schedule: Q01DX001 (ip), vehicle: steriod suspending solution 98 % of control | dose: 150.0 mg/kg/injection, schedule: Q01DX001 (ip), vehicle: steriod suspending solution 98 % of control | dose: 300.0 mg/kg/injection, schedule: Q01DX001 (ip), vehicle: steriod suspending solution 100 % of control

NNC(=O)CCCO
inactive: [1] 103 % of control | [2] 98 % of control | [3] 101 % of control

CNC(=O)c1ccc[n+](CC(=O)Nc2ccc(Cl)cc2)c1
inactive: dose: 100.0 mg/kg/injection, schedule: Q04DX003 (ip), vehicle: acetone 110 % of control | dose: 200.0 mg/kg/injection, schedule: Q04DX003 (ip), vehicle: acetone 98 % of control

CCN1C(C)C1C(C)C (configuration not stated)
inactive: [4] 105 % of control | [5] 107 % of control | [6] 109 % of control | [7] 117 % of control

O=C(O)CN(CC(=O)O)Cc1ccccc1
inactive: dose: 5.0 mg/kg/injection, schedule: Q01DX001 (ip), vehicle: saline 102 % of control | dose: 10.0 mg/kg/injection, schedule: Q01DX001 (ip), vehicle: saline 102 % of control | dose: 20.0 mg/kg/injection, schedule: Q01DX001 (ip), vehicle: saline 100 % of control | dose: 40.0 mg/kg/injection, schedule: Q01DX001 (ip), vehicle: saline 100 % of control

S=C(S)Nc1ccc(Cc2ccc(NC(=S)S)cc2)cc1
inactive: [1] 95 % of control | [2] 91 % of control | [3] 98 % of control

O=c1[nH][nH]c(=O)n1O
inactive: dose: 100.0 mg/kg/injection, schedule: Q01DX001 (ip), vehicle: saline with Tween-80 102 % of control | dose: 100.0 mg/kg/injection, schedule: Q01DX009 (ip), vehicle: acetone 105 % of control | [8] 91 % of control | dose: 100.0 mg/kg/injection, schedule: Q01DX009 (ip), vehicle: saline 94 % of control and 92 % of control | [1] 101 % of control and 109 % of control | dose: 130.0 mg/kg/injection, schedule: Q01DX009 (ip), vehicle: saline 89 % of control | dose: 200.0 mg/kg/injection, schedule: Q01DX001 (ip), vehicle: saline with Tween-80 106 % of control | [9] 88 % of control | [2] 102 % of control and 105 % of control | dose: 300.0 mg/kg/injection, schedule: Q01DX009 (ip), vehicle: saline 98 % of control and 89 % of control | dose: 400.0 mg/kg/injection, schedule: Q01DX001 (ip), vehicle: saline with Tween-80 104 % of control | dose: 400.0 mg/kg/injection, schedule: Q01DX009 (ip), vehicle: acetone 88 % of control | dose: 400.0 mg/kg/injection, schedule: Q01DX009 (ip), vehicle: saline 88 % of control | [3] 98 % of control and 89 % of control

C=CCc1ccc(OC)c(OC)c1
inactive: dose: 100.0 mg/kg/injection, schedule: Q04DX002 (ip), vehicle: saline 97 % of control | dose: 200.0 mg/kg/injection, schedule: Q04DX002 (ip), vehicle: saline 95 % of control | dose: 400.0 mg/kg/injection, schedule: Q04DX002 (ip), vehicle: saline 104 % of control

S=C(N/N=C1\C=Cc2ccccc2C1)N/N=C1\C=Cc2ccccc2C1
inactive: dose: 100.0 mg/kg/injection, schedule: Q01DX001 (ip), vehicle: saline 92 % of control | dose: 200.0 mg/kg/injection, schedule: Q01DX001 (ip), vehicle: saline 95 % of control | dose: 400.0 mg/kg/injection, schedule: Q01DX001 (ip), vehicle: saline 95 % of control

CN(C)CCCCCCN(C)C (tested in a mixture with another compound)
inactive: dose: 9.38 mg/kg/injection, schedule: Q01DX001 (ip), vehicle: saline 102 % of control | dose: 18.75 mg/kg/injection, schedule: Q01DX001 (ip), vehicle: saline 95 % of control | dose: 37.5 mg/kg/injection, schedule: Q01DX001 (ip), vehicle: saline 93 % of control

O=C1OC(c2cccc(Cl)c2)=N/C1=C\c1ccccc1O
inactive: [6] 94 % of control | [10] 94 % of control

O=C1CC(c2ccc(O)cc2)CC(=O)C1C(=O)Nc1ccccc1 (configuration not stated)
inactive: dose: 100.0 mg/kg/injection, schedule: Q01DX001 (ip), vehicle: other 101 % of control | dose: 200.0 mg/kg/injection, schedule: Q01DX001 (ip), vehicle: other 100 % of control | dose: 400.0 mg/kg/injection, schedule: Q01DX001 (ip), vehicle: other 97 % of control

CC1CC(CC(=O)O)(C(=O)O)CC(C)O1 (configuration not stated)
inactive: [11] 105 % of control | [1] 90 % of control | [12] 97 % of control | [2] 101 % of control | [13] 92 % of control | [3] 95 % of control

N#C/C(=C\c1ccccc1)c1cccc(Cl)c1
inactive: dose: 100.0 mg/kg/injection, schedule: Q01DX009 (ip), vehicle: other 95 % of control | dose: 200.0 mg/kg/injection, schedule: Q01DX009 (ip), vehicle: other 87 % of control

OC1C2CCC(CC2)C1O (configuration not stated)
inactive: dose: 4.5 mg/kg/injection, schedule: Q01DX009 (ip), vehicle: saline with Tween-80 92 % of control | dose: 4.5 mg/kg/injection, schedule: Q04DX003 (ip), vehicle: other 108 % of control | dose: 9.0 mg/kg/injection, schedule: Q01DX009 (ip), vehicle: saline with Tween-80 92 % of control | dose: 9.0 mg/kg/injection, schedule: Q04DX003 (ip), vehicle: other 101 % of control | dose: 9.75 mg/kg/injection, schedule: Q01DX001 (ip), vehicle: other 104 % of control | dose: 18.0 mg/kg/injection, schedule: Q01DX009 (ip), vehicle: saline with Tween-80 86 % of control | dose: 18.0 mg/kg/injection, schedule: Q04DX003 (ip), vehicle: other 106 % of control | dose: 18.5 mg/kg/injection, schedule: Q01DX001 (ip), vehicle: other 107 % of control

O=C(CCC(C(=O)c1ccccc1)c1ccccc1)c1ccccc1 (configuration not stated)
inactive: [8] 104 % of control | [9] 87 % of control | dose: 400.0 mg/kg/injection, schedule: Q01DX009 (ip), vehicle: saline with Tween-80 88 % of control

O=C(O)c1ccccc1NC(C(=O)O)c1ccccc1 (configuration not stated)
inactive: dose: 100.0 mg/kg/injection, schedule: Q04DX002 (ip), vehicle: saline with Tween-80 100 % of control | dose: 200.0 mg/kg/injection, schedule: Q04DX002 (ip), vehicle: saline with Tween-80 96 % of control | dose: 400.0 mg/kg/injection, schedule: Q04DX002 (ip), vehicle: saline with Tween-80 96 % of control

S=C1NC2(CCCCC2)C2=C(CCCC2)S1
inactive: [1] 100 % of control | [2] 88 % of control | [3] 96 % of control

CCCCC(=O)N(C(C)C)C(C)C
inactive: dose: 50.0 mg/kg/injection, schedule: Q01DX009 (ip), vehicle: carboxymethylcellulose (CMC) 94 % of control and 103 % of control | dose: 100.0 mg/kg/injection, schedule: Q01DX009 (ip), vehicle: carboxymethylcellulose (CMC) 97 % of control and 102 % of control | dose: 100.0 mg/kg/injection, schedule: Q04DX002 (ip), vehicle: carboxymethylcellulose (CMC) 95 % of control and 98 % of control | dose: 200.0 mg/kg/injection, schedule: Q04DX002 (ip), vehicle: carboxymethylcellulose (CMC) 95 % of control

C/C=C/c1ccc2oc(-c3ccc(OC4OC(C)C(O)C(O)C4O)cc3)c(C)c2c1 (configuration not stated)
inactive: [11] 93 % of control | [12] 90 % of control | [13] 96 % of control

COc1c(NC(=O)c2ccc(C(=O)Nc3cccc([N+](=O)[O-])c3OC)cc2)cccc1[N+](=O)[O-]
inactive: [6] 97 % of control | [14] 100 % of control | [10] 97 % of control

COC(=O)c1ccc(N)cc1O
inactive: [4] 101 % of control | [5] 106 % of control | [6] 99 % of control and 101 % of control | [7] 98 % of control | [14] 105 % of control | dose: 200.0 mg/kg/injection, schedule: Q04DX003 (ip), vehicle: Klucel (hydroxypropylcellulose) (HPC) 102 % of control | dose: 400.0 mg/kg/injection, schedule: Q04DX003 (ip), vehicle: Klucel (hydroxypropylcellulose) (HPC) 93 % of control

CC(=O)Oc1c2c(n3c1CCC3)CC(C)(C)CC2=O
inactive: dose: 75.0 mg/kg/injection, schedule: Q04DX002 (ip), vehicle: Klucel (hydroxypropylcellulose) (HPC) 102 % of control | dose: 150.0 mg/kg/injection, schedule: Q04DX002 (ip), vehicle: Klucel (hydroxypropylcellulose) (HPC) 97 % of control | dose: 300.0 mg/kg/injection, schedule: Q04DX002 (ip), vehicle: Klucel (hydroxypropylcellulose) (HPC) 87 % of control
